The results in this text go back to patent US11135310B2, “Gold porphyrin-PEG conjugates and methods of use” (The University of Hong Kong, priority 2015, dated 2021).

Where two headings read alike, the source gives them in different places.

The subject of one series is NCI-H460. The series is described as follows: In vitro cytotoxicity, MTT assay. The series is classed as cell-based, human. The following applies: for IC50: MTT assay, 72 h incubation.
The test system of a further series is non-tumorigenic cells. The series is described as follows: In vitro cytotoxicity, MTT assay, non-tumorigenic cells. In kind it is cell-based. The following applies: 72 h. In general terms: Formazan colour is commonly taken as a measure of viable cells.
Another series concerns MIHA. The series is described as follows: In vitro cytotoxicity, MTT assay.
In series [1] the test system is A2780adr. The following applies: for IC50: MTT assay, 72 h incubation.
The next series relates to HeLa. The experiment in a line: In vitro cytotoxicity, MTT assay. In kind it is cell-based, human. The source says: Therefore, it was anticipated that a not too high loading of DOX into nanostructures of 1 could be used for anti-cancer purposes in order to maintain low toxicity toward non-tumorigenic cells. Together with the higher encapsulation efficiency of DOX, NC1 was selected for investigations of the in vitro cytotoxicity. […] The in vitro cytotoxicity of NC1 was also compared to that of the mixture of nanostructures of 1 and DOX. […] The observed cytotoxicity was further evaluated by the combination index (CI), which can describe the effect of drug combination. […] It is shown that dose and effect are interchangeable via defined parameters. This general equation for the single drug effect has been extended to the multiple drug effect equation for n drugs. These equations provide the theoretical basis for the combination index (CI)-isobologram equation that allows quantitative determination of drug interactions, where CI<1, =1, and >1 indicate synergism, additive effect, and antagonism, respectively. [Chou, et al. Pharmacol. Rev. 2006, 58, 621] […] The synergistic effect can originate from different molecular targets and/or mechanism of action of DOX from that of gold(III) porphyrin complexes. […] These different modes of action would allow supra-additive effect on killing HeLa cells by the co-delivery.

A further series deals with A2780. The series is described as follows: In vitro cytotoxicity, MTT assay. The series is classed as cell-based, human. The settings on record: for IC50: MTT assay, 72 h incubation.
The subject of the next series is NCM460. The experiment in a line: In vitro cytotoxicity, MTT assay. In kind it is cell-based, human. The settings on record: 72 h incubation.
For the next series, the system named is CCD-19Lu. The series is described as follows: In vitro cytotoxicity, MTT assay. In kind it is cell-based. The settings on record: 72 h incubation.
The next series deals with HCT116. The experiment in a line: In vitro cytotoxicity, MTT assay. The following applies: for IC50: HCT116, MTT assay, 72 h incubation. In kind it is cell-based, human.
The subject of another series is A2780cis. The experiment in a line: In vitro cytotoxicity, MTT assay. The series is classed as cell-based, human. The settings on record: for IC50: MTT assay, 72 h incubation.
A further series has as its system A2780adr cells. The series is described as follows: Cellular uptake of DOX, cell lysates by UPLC-QTOF-MS. The series is classed as cell-based, human. The settings on record: for Uptake of DOX by A2780adr cells: [DOX]=0.5 μM.
A further series deals with HCT116 cells. The series is described as follows: Induction of apoptosis, CellEvent Caspase-3/7 Green (microscopy and flow cytometry). The series is classed as cell-based, human. The following applies: NC1 ([1]=3.5 μM and [DOX]=0.5 μM) or DOX alone.
Series [2] relates to A2780adr. The experiment in a line: cells. The following applies: Homo sapiens, A2780 ADR, 72 h.
The mark [3] stands for this setting: MIHA, MTT assay, 72 h incubation.
Setting [4] is: MTT assay, 72 h incubation, read-out: IC50.
Where [5] appears, read: IC50 of MIHA cells/IC50 of cancer cells.
Setting [6] is: IC50 of NCM460 cells/IC50 of cancer cells.

By IC50 is commonly meant the concentration needed to halve the response being measured. For the molecule `Oc1ccc(-c2c3nc(c(-c4ccccc4)c4ccc([n-]4)c(-c4ccccc4)c4nc(c(-c5ccccc5)c5ccc2[n-]5)C=C4)C=C3)cc1.[Au+3].[Cl-]` [A4], the IC50 was 150 ± 3 nM with NCI-H460, 570 ± 40 nM in the series with MIHA (setting [3]), 530 ± 140 nM with A2780adr [1] (A2780adr) and 380 ± 70 nM in the series on HeLa (setting [4]). Moreover, the “IC50 for non-tumorigenic cells” value in the series on non-tumorigenic cells is reported as “submicromolar range”.
`O=C(O)CCCCCCCCC(=O)Oc1ccc(-c2c3nc(c(-c4ccccc4)c4ccc([n-]4)c(-c4ccccc4)c4nc(c(-c5ccccc5)c5ccc2[n-]5)C=C4)C=C3)cc1.[Au+3].[Cl-]` [A10]: the half-maximal inhibitory concentration (IC50) amounted to 180 ± 4 nM with NCI-H460, 610 ± 50 nM in the series with MIHA (setting [3]), 520 ± 60 nM in the series on A2780adr [1] (A2780adr) and 410 ± 50 nM in the series on HeLa (setting [4]). The “IC50 for non-tumorigenic cells” value in the series on non-tumorigenic cells is “submicromolar range”.
On to `N.N.[Cl][Pt][Cl]` [Cisplatin, cisplatin, reference compound], for which the IC50 with NCI-H460 is 65400 ± 5000 nM; in the series with MIHA (setting [3]), 17600 ± 1300 nM; in the series on A2780adr [1] (A2780adr), 12700 ± 1900 nM; in the series with A2780, 2600 ± 300 nM; in the series with NCM460, 12300 ± 900 nM; in the series on HeLa (setting [4]), 19800 ± 1400 nM. The IC50 in the series on CCD-19Lu turned out to be 49100 ± 5400 nM; in the series with HCT116, 15700 ± 2200 nM; in the series on A2780cis (A2780cis) it was 8400 ± 50 nM. The “Resistance found in A2780adr” value in the series with A2780adr [1] (Determined by IC50 of A2780adr cells/IC50 of A2780 cells) worked out at 0.20. For the same molecule, the “Resistance found in A2780cis” value in the series with A2780cis (Determined by IC50 of A2780cis cells/IC50 of A2780 cells) is given as 0.31.
Regarding `COc1cccc2c1C(=O)c1c(O)c3c(c(O)c1C2=O)C[C@@](O)(C(=O)CO)C[C@@H]3O[C@H]1C[C@H](N)[C@H](O)[C@H](C)O1` [DOX, doxorubicin], the “DOX uptake smaller than after incubation of NC1” value in the series with A2780adr cells (14 h) is on record as 1.8 fold; with A2780adr cells (24 h), 3.0 fold. The “Uptake of DOX by A2780adr cells” value in the series with A2780adr cells (incubation 14 h) is on record as 33.9 μg per g of proteins; with A2780adr cells (incubation 24 h), 27.8 μg per g of proteins. For the same molecule, the IC50 with NCI-H460 (Homo sapiens) came to 36 ± 10 nM; with MIHA (72 h), 100 ± 10 nM; in the series on MIHA (72 h, read-out: DOX at IC50) it was 100 nM; with MIHA (72 h, read-out: Total dose at IC50), 100 nM; with A2780 (Homo sapiens) it was 45 ± 7 nM; in the series on A2780adr [2], 680 ± 50 nM. In addition, the IC50 was 700 nM with A2780adr [2] (read-out: DOX at IC50); 700 nM in the series on A2780adr [2] (read-out: Total dose at IC50); 570 nM in the series on HeLa (Homo sapiens, 72 h, read-out: DOX at IC50); 570 nM in the series on HeLa (Homo sapiens, 72 h, read-out: Total dose at IC50); 570 ± 60 nM in the series on HeLa (Homo sapiens, MTT assay, 72 h incubation, read-out: IC50); 140 ± 20 nM in the series with HCT116 (Homo sapiens, HCT-116). Moreover, in the series on A2780cis (Homo sapiens, A2780cis), the IC50 came to 54 ± 5 nM. The “Toxicity (of DOX) toward cancer cells compared to that toward MIHA cells” value in the series on NCI-H460 (setting [5]) is recorded as 2.8; in the series on A2780adr [1] (A2780adr, IC50 of MIHA cells/IC50 of cancer cells) it was 0.1; in the series with A2780 (setting [5]), 2.2; with HeLa (IC50 of MIHA cells/IC50 of cancer cells, cytotoxicity of 1 in NC1 not considered), 0.2; in the series with HCT116 (HCT-116, IC50 of MIHA cells/IC50 of cancer cells), 0.7; in the series on A2780cis (A2780cis, IC50 of MIHA cells/IC50 of cancer cells), 1.9. The “Toxicity (of DOX) toward cancer cells compared to that toward NCM460 cells” value in the series with NCI-H460 (setting [6]) is recorded as 27.8; in the series on A2780adr [1] (A2780adr, IC50 of NCM460 cells/IC50 of cancer cells), 1.5; in the series on A2780 (setting [6]), 22.2; in the series with HeLa (IC50 of NCM460 cells/IC50 of cancer cells, cytotoxicity of 1 in NC1 not considered), 1.8; in the series on HCT116 (HCT-116, IC50 of NCM460 cells/IC50 of cancer cells), 7.1; in the series on A2780cis (A2780cis, IC50 of NCM460 cells/IC50 of cancer cells) it was 18.5. In the series on HCT116 cells, the “Incubation time for induction of apoptosis of HCT116 cells” value was found to be 30 h. Besides, the “Lower cytotoxicity toward A2780adr cells than non-resistant A2780 cells” value in the series with A2780adr [1] (from IC50 of Table 1) is 15 fold.
